In US20080161232A1, “C5a Receptor Antagonist” (JERINI AG, priority 2005, published 2008):
Blank lines part the entries; values can stand above or below the molecule they belong to. Positions of bridges follow the written chain, without caps; N, C: chain ends. Non-standard residues stand in square brackets, D forms with d. Residues, ends and D or L forms follow the SMILES beside them. *: point of attachment. Orn(2-imidazolinyl) = N[C@@H](CCCNC1=NCCN1)C(=O)O; Phe(4-F) = N[C@@H](Cc1ccc(F)cc1)C(=O)O; Bta = N[C@@H](Cc1csc2ccccc12)C(=O)O; Hydrocinnamoyl = O=C(CCc1ccccc1)*; 2Thi = N[C@@H](Cc1cccs1)C(=O)O; dCha = N[C@H](CC1CCCCC1)C(=O)O; Pip = O=C(O)[C@@H]1CCCCN1; Nle = CCCC[C@H](N)C(=O)O; Orn = NCCC[C@H](N)C(=O)O; Aze = O=C(O)[C@@H]1CCN1

Tests used:
[1] = target: T1, human C5aR(CD88) (Homo sapiens, UniProt P21730); assay: Determination of EC50-values in an enzyme release assay (agonistic activity); assay type: cell-based; conditions: for EC50: agonistic activity, no C5a added, read-out: EC50; for agonistic activity (in words): cellular assay, up to a concentration of at least 1430 nM
T1 construct: expressed in transfected cells; host or cells: rat basophilic leukemia cells (RBL)
T1 sequence (P21730 1-350): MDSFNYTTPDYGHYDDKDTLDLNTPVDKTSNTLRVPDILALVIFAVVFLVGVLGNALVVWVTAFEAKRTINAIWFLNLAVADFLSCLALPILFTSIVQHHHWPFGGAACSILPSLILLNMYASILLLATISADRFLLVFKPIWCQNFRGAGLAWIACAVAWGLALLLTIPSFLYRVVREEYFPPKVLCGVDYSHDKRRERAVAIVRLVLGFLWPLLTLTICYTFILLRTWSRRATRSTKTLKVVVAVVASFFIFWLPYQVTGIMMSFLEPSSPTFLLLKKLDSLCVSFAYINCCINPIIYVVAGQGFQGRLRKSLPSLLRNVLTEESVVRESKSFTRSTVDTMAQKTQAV
Experimental: The assay procedure was described by Kohl (Kohl 1997 The Anaphylatoxins. In: Dodds, A. W., Sim, R. B. (Eds.), Complement: A Practical Approach. Oxford, pp. 135-163). Basophilic leukemia cells from rats (RBL), which express the human C5aR(CD88), were cultivated in DMEM with 10% fetal bovine serum, 100 U/ml penicillin, 100 μg/ml streptomycin and 2 mM glutamine (all components of the media from Biochrome, Berlin) to confluence at 37° C. and 10% CO2. The following specifications refer to single cell culture flask having a surface of 75 cm^2. Medium was decanted from cells. Cells were washed with 10 ml PBS (Dulbecco's PBS, Biochrome) and subsequently overlayed with 3 ml Cell Dissociation Solution (CDS, Sigma). Cells were incubated for 1 min at room temperature. Subsequently, CDS was removed and the cells were further incubated for 10-15 min at 37° C. for dissociation. In the assay, 20 μl of the solution containing the compound to be tested were used. This solution should not contain more than 2.8% DMSO. For the dilution process, the compounds were diluted in ⅓ or ½ steps. To 20 μl compound solution 75 μl of the RBL-cells were added, which were treated as follows: after dissociation cells were detached and warmed at 37° C. in 10 ml HAG-CM (20 mM HEPES; 125 mM NaCl, 5 mM KCl, 1 mM CaCl2, 1 mM MgCl2, 0,5 mM Glucose, 0,25% BSA. HEPES-preparation: 2.3 g/l HEPES-salt +2.66 g/l HEPES acid). Cells were counted and centrifuged (200×g, 10 min). The cell pellet was resuspended in preheated HAG-CM (i.e. Hepes-buffer NaCl-glucose-solution with calcium and magnesium), and the cell density was adjusted to 2×10^6 cells/ml. The cells were incubated at 37° C. for 5 min. Per ml cell suspension 27 μl of a cytochalasin B-solution were added (100 μg/ml in DMSO, Sigma). The cells were incubated for further 3 min at 37° C. 75 μl of the cell suspension were added to 20 μl compound solution leading to a volume of 95 μl per well. After incubation of the cells for 10 min at 37° C. 10 μl hrC5a (10.5 nM in HAG-CM, Sigma) per well were added. The cells were incubated for additional 5 min at 37° C. The mtp was then transferred to ice and centrifuged for 3 min at 4° C. with 1200×g. 75 μl of the supernatant were added to 100 μl substrate-solution (2.7 mg/ml p-nitrophenyl-N-acetyl-β-D-glucosaminide (Sigma) in 42.5 mM Na-acetate pH 4.5). The mtp was incubated for further 60 min at 37° C. 75 μl 0.4 M glycine pH 10.4 were added per well. The mtp was transferred into a reader and the absorption at 405 nm was measured. IC50-values were obtained following the equation; y=((A-D)/(1+(x/C)^B))+D.
Determination of EC50-Values in an Enzyme Release Assay
The determination of EC50-values was performed according to the procedure given in example II, with the exception that 30 μl of the test compound need to be mixed with 75 μl of the cell suspension mentioned in example 11. Neither preincubation nor addition of C5a for stimulation of enzyme release is needed.

[2] = target: T1, human C5aR(CD88); assay: Determination of the IC50 value in an enzyme release assay (functional assay, antagonistic activity); assay type: cell-based; conditions: for IC50: antagonistic activity, IC50 group in enzyme release assay, RBL cells expressing human C5aR(CD88), read-out: activity (group); for inhibitory activity (in words): functional assay of example 11, noteworthy = IC50 less than 200 nM

Molecule: CC(=O)N[C@@H](Cc1ccccc1)C(=O)N[C@@H](CCCN)C(=O)N1CCC[C@H]1C(=O)N[C@H](CC1CCCCC1)C(=O)N[C@@H](Cc1csc2ccccc12)C(=O)N[C@@H](Cc1ccccc1)C(N)=O [Compound 62, Ac-Phe-Orn-Pro-cha-Bta-Phe-NH2] (Ac-F[Orn]P[dCha][Bta]F-NH2)
EC50 [1]: > 100000 nM | agonistic activity (in words) [1]: pure antagonists | IC50 [2]: 20 to 50 nM

agonistic activity (in words) [1]: pure antagonists
Molecule: CCCC[C@@H]1NC(=O)[C@H](Cc2c[nH]c3ccccc23)NC(=O)[C@@H](CC2CCCCC2)NC(=O)[C@H](CO)NC(=O)[C@@H](NC(=O)[C@@H](N)Cc2ccccc2)CCCNC1=O [Compound 44, H-Phe-[Orn-Ser-cha-Trp-Nle]] (H-F[Orn]S[dCha]W[Nle]; lactam 2-C)

EC50 [1]: > 1430 nM | agonistic activity (in words) [1]: pure antagonists | IC50 [2]: 50 to 200 nM | inhibitory activity (in words) [2]: noteworthy inhibitory activity
Molecule: CCCC[C@@H]1NC(=O)[C@H](Cc2c[nH]c3ccccc23)NC(=O)[C@@H](CC2CCCCC2)NC(=O)[C@@H]2CCCN2C(=O)[C@@H](NC(=O)[C@H](Cc2ccccc2)NC(=O)CON=CC(O)C(O)C(O)C(O)CO)CCCNC1=O (single isomer, unassigned) [Compound 3, HOCH2(CHOH)4—C═N—O—CH2—CO-Phe-[Orn-Pro-cha-Trp-Nle]]

EC50 [1]: > 1430 nM | agonistic activity (in words) [1]: pure antagonists | IC50 [2]: 10 to 20 nM | inhibitory activity (in words) [2]: noteworthy inhibitory activity
Molecule: CCCC[C@@H]1NC(=O)[C@H](Cc2c[nH]c3ccccc23)NC(=O)[C@@H](CC2CCCCC2)NC(=O)[C@@H]2CCCN2C(=O)[C@@H](NC(=O)CCc2ccccc2)CCCNC1=O [Compound 41, Ph-CH2—CH2—CO-[Orn-Pro-cha-Trp-Nle]] (Hydrocinnamoyl-[Orn]P[dCha]W[Nle]; lactam 1-C)

Molecule: CC(=O)N[C@@H](Cc1ccccc1)C(=O)N[C@@H](CCCNC1=NCCN1)C(=O)N1CCC[C@H]1C(=O)N[C@H](CC1CCCCC1)C(=O)N[C@@H](Cc1csc2ccccc12)C(=O)N[C@@H](Cc1ccccc1)C(N)=O [Compound 150, Ac-Phe-Arg(CH2—CH2)-Pro-cha-Bta-Phe-NH2] (Ac-F[Orn(2-imidazolinyl)]P[dCha][Bta]F-NH2)
agonistic activity (in words) [1]: pure antagonists | IC50 [2]: 5 to 10 nM | inhibitory activity (in words) [2]: noteworthy inhibitory activity

EC50 [1]: > 100000 nM | agonistic activity (in words) [1]: pure antagonists | IC50 [2]: 50 to 200 nM
Molecule: CC(=O)N[C@@H](Cc1ccccc1)C(=O)N[C@@H](Cc1c[nH]c2ccccc12)C(=O)N1CCC[C@H]1C(=O)N[C@H](CC1CCCCC1)C(=O)N[C@@H](Cc1c[nH]c2ccccc12)C(=O)N[C@@H](Cc1ccccc1)C(N)=O [Compound 84, Ac-Phe-Trp-Pro-cha-Trp-Phe-NH2] (Ac-FWP[dCha]WF-NH2)

EC50 [1]: > 100000 nM | agonistic activity (in words) [1]: pure antagonists | IC50 [2]: 20 to 50 nM
Molecule: CC(=O)N[C@@H](Cc1cccs1)C(=O)N[C@@H](CCCN)C(=O)N1CCCC[C@H]1C(=O)N[C@H](CC1CCCCC1)C(=O)N[C@@H](Cc1csc2ccccc12)C(=O)N[C@@H](Cc1ccccc1)C(N)=O [Compound 67, Ac-Thi-Orn-Pip-cha-Bta-Phe-NH2] (Ac-[2Thi][Orn][Pip][dCha][Bta]F-NH2)

agonistic activity (in words) [1]: pure antagonists
Molecule: N[C@@H](Cc1ccccc1)C(=O)N[C@H]1CCCNC(=O)[C@H](Cc2ccccc2)NC(=O)[C@H](Cc2c[nH]c3ccccc23)NC(=O)[C@@H](CC2CCCCC2)NC(=O)[C@@H]2CCCN2C1=O [H-Phe-[Orn-Pro-cha-Trp-Phe]] (H-F[Orn]P[dCha]WF; lactam 2-C)

Molecule: CC(=O)N[C@@H](Cc1ccccc1)C(=O)N[C@@H](CCCN)C(=O)N1CC[C@H]1C(=O)N[C@H](CC1CCCCC1)C(=O)N[C@@H](Cc1c[nH]c2ccccc12)C(=O)N[C@@H](Cc1ccccc1)C(N)=O [Compound 83, Ac-Phe-Orn-Aze-cha-Trp-Phe-NH2] (Ac-F[Orn][Aze][dCha]WF-NH2)
EC50 [1]: > 100000 nM | agonistic activity (in words) [1]: pure antagonists | IC50 [2]: 20 to 50 nM

agonistic activity (in words) [1]: pure antagonists
Molecule: CC(=O)N[C@@H](Cc1ccccc1)C(=O)N[C@@H](CCCN)C(=O)N[C@H](CC1CCCCC1)C(=O)N[C@H](CC1CCCCC1)C(=O)N[C@@H](Cc1csc2ccccc12)C(=O)N[C@@H](Cc1ccccc1)C(N)=O [Ac-Phe-Orn-cha-cha-Bta-Phe-NH2] (Ac-F[Orn][dCha][dCha][Bta]F-NH2)

Molecule: CC(=O)N[C@@H](Cc1ccccc1)C(=O)N[C@@H](CCCN)C(=O)N1CCCC[C@H]1C(=O)N[C@H](CC1CCCCC1)C(=O)N[C@@H](Cc1c[nH]c2ccccc12)C(=O)N[C@@H](Cc1ccccc1)C(N)=O [Compound 55, Ac-Phe-Orn-Pip-cha-Trp-Phe-NH2] (Ac-F[Orn][Pip][dCha]WF-NH2)
EC50 [1]: > 100000 nM | agonistic activity (in words) [1]: pure antagonists | IC50 [2]: 20 to 50 nM

EC50 [1]: > 100000 nM | agonistic activity (in words) [1]: pure antagonists
Molecule: CC(=O)N[C@@H](Cc1ccccc1)C(=O)N[C@@H](CCCN)C(=O)N1CCC[C@H]1C(=O)N[C@H](CC1CCCCC1)C(=O)N[C@@H](Cc1c[nH]c2ccccc12)C(=O)N[C@@H](Cc1ccccc1)C(N)=O [Compound 61, Ac-Phe-Orn-Pro-cha-Trp-Phe-NH2] (Ac-F[Orn]P[dCha]WF-NH2)

EC50 [1]: > 100000 nM | agonistic activity (in words) [1]: pure antagonists | IC50 [2]: 20 to 50 nM
Molecule: CC(=O)N[C@@H](Cc1ccccc1)C(=O)N[C@@H](CCCNC(=N)N)C(=O)N1CCC[C@H]1C(=O)N[C@H](CC1CCCCC1)C(=O)N[C@@H](Cc1c[nH]c2ccccc12)C(=O)N[C@@H](Cc1ccccc1)C(N)=O [Compound 88, Ac-Phe-Arg-Pro-cha-Trp-Phe-NH2] (Ac-FRP[dCha]WF-NH2)

IC50 [2]: 10 to 20 nM
Molecule: CC(=O)NCC(=O)N[C@@H](Cc1ccccc1)C(=O)N[C@@H](CCCN)C(=O)N1CC[C@H]1C(=O)N[C@H](CC1CCCCC1)C(=O)N[C@@H](Cc1csc2ccccc12)C(=O)N[C@@H](Cc1ccccc1)C(N)=O [Compound 154, Ac-Gly-Phe-Orn-Aze-cha-Bta-Phe-NH2] (Ac-GF[Orn][Aze][dCha][Bta]F-NH2)

Molecule: CC(=O)N[C@@H](Cc1ccc(F)cc1)C(=O)N[C@@H](CCCN)C(=O)N1CCC[C@H]1C(=O)N[C@H](CC1CCCCC1)C(=O)N[C@@H](Cc1csc2ccccc12)C(=O)N[C@@H](Cc1ccccc1)C(N)=O [Compound 169, Ac-Pff-Orn-Pro-cha-Bta-Phe-NH2] (Ac-[Phe(4-F)][Orn]P[dCha][Bta]F-NH2)
IC50 [2]: 20 to 50 nM

IC50 [2]: 20 to 50 nM
Molecule: CC(=O)N[C@@H](CCCCN)C(=O)N[C@@H](Cc1ccccc1)C(=O)N[C@@H](CCCN)C(=O)N1CC[C@H]1C(=O)N[C@H](CC1CCCCC1)C(=O)N[C@@H](Cc1csc2ccccc12)C(=O)N[C@@H](Cc1ccccc1)C(N)=O [Compound 160, Ac-Lys-Phe-Orn-Aze-cha-Bta-Phe-NH2] (Ac-KF[Orn][Aze][dCha][Bta]F-NH2)

EC50 [1]: 2.4 nM
B1: hrC5a: hrC5a (Sigma), added for stimulation of enzyme release (protein, UniProt P01031 678-751, looked up)
C5a anaphylatoxin: TLQKKIEEIAAKYKHSVVKKCCYDGACVNNDETCEQRAARISLGPRCIKAFTECCVVASQLRANISHKDMQLGR
modifications: C5a anaphylatoxin
notes: hrC5a (Sigma), added for stimulation of enzyme release
